ChEMBL document CHEMBL1201862, “PubChem BioAssay data set” (2004)
“And” between values parts separate entries of the source, which are not always exact repeats. Identical values can stand only once. The source made the active and inactive calls.

What was measured:
BJ [1] = assay: cytotoxicity toward BJ-TERT fibroblasts, dose response, cell-based, RAS-independent, luminescence (AID 1933); assay type: functional, Homo sapiens; conditions: bj
BJ [2] = assay: cells; assay type: functional, cell-based, Homo sapiens; conditions: bj
BJ [3] = assay: cytotoxicity toward BJ-TERT-LT-ST fibroblasts, dose response, cell-based, RAS-independent, luminescence (AID 1935); assay type: functional, Homo sapiens; conditions: bj;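 note: BJ fibroblasts immortalized with TERT plus LT and ST oncogenes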
X-box-binding protein 1 = X-box-binding protein 1 (Homo sapiens, UniProt P17861); assay type: functional, Cricetulus griseus;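 note: confirmatory dose-response counter-screen serving a CHOP assay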
Sequence of X-box-binding protein 1 (P17861 whole entry): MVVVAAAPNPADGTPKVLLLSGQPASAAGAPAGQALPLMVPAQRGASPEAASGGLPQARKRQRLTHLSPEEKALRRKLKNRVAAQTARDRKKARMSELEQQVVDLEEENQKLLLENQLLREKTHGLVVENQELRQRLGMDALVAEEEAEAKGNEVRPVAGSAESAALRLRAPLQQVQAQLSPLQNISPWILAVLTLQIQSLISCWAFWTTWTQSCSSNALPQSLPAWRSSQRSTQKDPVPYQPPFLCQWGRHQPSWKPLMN

[4] = biological target: Photoreceptor-specific nuclear receptor (Homo sapiens, UniProt Q9Y5X4); assay type: functional;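 note: potency for compounds that break the NR2E3 corepressor complex and count as activators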
Sequence of Photoreceptor-specific nuclear receptor (Q9Y5X4 whole entry): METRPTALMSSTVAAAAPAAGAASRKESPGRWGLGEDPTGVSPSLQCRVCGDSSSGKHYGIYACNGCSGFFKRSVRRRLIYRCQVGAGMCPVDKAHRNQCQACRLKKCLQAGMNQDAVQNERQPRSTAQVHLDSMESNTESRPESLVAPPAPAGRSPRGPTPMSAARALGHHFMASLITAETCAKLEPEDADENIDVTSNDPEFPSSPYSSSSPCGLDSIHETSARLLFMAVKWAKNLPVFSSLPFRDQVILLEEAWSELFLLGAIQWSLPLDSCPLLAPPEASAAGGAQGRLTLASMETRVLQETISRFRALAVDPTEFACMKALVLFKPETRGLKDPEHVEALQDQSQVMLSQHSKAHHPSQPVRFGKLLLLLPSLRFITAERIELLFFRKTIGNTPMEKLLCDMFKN

[5] = biological target: Peroxisome proliferator-activated receptor gamma/Nuclear receptor coactivator 1 (Homo sapiens, UniProt P37231); assay: (§1) TR-FRET dose response biochemical High Throughput Screening assay for agonists of the steroid receptor coactivator 1 (SRC-1) recruitment by the peroxisome proliferator-activated receptor gamma (PPAR gamma): non-selective agonists. [Related pubchem assays (depositor defined):AID1300, AID1808, AID504735, AID631]; assay type: protein assay
Sequence of Peroxisome proliferator-activated receptor gamma/Nuclear receptor coactivator 1 (P37231 whole entry): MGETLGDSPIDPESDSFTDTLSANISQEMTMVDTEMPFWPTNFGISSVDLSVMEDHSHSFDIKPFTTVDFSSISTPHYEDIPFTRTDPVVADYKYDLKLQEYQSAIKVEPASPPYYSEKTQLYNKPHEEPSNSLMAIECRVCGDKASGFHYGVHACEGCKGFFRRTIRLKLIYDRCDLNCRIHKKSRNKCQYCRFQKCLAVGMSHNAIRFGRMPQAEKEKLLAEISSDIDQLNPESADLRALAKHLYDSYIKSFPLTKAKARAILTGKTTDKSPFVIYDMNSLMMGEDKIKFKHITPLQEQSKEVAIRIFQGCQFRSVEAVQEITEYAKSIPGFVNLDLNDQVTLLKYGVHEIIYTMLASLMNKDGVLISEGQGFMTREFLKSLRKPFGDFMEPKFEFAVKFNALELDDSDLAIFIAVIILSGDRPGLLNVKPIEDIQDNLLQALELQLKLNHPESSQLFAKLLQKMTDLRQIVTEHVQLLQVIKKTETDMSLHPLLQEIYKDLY
Sequence of Peroxisome proliferator-activated receptor gamma/Nuclear receptor coactivator 1 (Q15788 whole entry, further chain): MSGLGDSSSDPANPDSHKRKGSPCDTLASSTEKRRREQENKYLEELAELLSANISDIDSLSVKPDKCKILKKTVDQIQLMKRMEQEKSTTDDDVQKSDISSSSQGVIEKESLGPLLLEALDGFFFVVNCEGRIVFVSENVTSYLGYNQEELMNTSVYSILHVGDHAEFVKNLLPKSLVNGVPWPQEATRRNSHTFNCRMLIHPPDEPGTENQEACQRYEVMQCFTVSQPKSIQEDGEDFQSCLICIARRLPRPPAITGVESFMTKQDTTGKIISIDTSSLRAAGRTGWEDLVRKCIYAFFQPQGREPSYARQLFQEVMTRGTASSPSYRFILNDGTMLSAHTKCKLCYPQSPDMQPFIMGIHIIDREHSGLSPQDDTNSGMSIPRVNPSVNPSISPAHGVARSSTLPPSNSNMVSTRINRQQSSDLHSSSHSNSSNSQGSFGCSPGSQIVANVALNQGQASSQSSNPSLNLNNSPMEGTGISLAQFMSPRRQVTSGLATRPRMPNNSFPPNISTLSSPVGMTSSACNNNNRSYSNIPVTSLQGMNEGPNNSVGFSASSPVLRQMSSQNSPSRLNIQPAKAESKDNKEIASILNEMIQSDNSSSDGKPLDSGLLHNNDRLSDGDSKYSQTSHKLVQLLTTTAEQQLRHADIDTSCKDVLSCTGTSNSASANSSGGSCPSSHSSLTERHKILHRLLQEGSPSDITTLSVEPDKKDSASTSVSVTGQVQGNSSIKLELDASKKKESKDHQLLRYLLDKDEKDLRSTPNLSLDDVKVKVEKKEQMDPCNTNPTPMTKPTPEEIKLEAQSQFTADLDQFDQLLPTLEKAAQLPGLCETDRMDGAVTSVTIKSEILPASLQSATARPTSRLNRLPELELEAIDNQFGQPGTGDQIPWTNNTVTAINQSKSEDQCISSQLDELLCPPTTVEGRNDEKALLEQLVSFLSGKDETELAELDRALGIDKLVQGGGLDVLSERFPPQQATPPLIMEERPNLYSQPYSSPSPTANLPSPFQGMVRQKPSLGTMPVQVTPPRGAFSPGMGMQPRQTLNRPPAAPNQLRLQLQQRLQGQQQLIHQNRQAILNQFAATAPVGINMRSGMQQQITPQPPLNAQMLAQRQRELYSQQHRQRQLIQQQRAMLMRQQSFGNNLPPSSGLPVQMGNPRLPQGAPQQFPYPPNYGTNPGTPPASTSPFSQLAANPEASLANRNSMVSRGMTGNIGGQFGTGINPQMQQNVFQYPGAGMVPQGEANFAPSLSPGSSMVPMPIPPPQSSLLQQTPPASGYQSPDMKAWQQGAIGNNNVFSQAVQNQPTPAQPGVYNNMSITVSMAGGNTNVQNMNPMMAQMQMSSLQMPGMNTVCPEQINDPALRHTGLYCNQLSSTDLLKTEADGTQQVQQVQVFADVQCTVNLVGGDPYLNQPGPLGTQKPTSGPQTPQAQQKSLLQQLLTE

[6] = biological target: Peroxisome proliferator-activated receptor gamma/Nuclear receptor coactivator 3 (Homo sapiens, UniProt P37231); assay: as §1, with “3 (SRC-3)” for “1 (SRC-1)”, “assays: 1301 (Confirmation screen.), 1048 (Primary screen.)]” for “assays (depositor defined):AID1300, AID1808, AID504735, AID631]”; assay type: functional
[7] = biological target: Peroxisome proliferator-activated receptor gamma/Nuclear receptor coactivator 2 (Homo sapiens, UniProt P37231); assay: TR-FRET dose response biochemical High Throughput Screening assay for agonists of the steroid receptor coactivator 2 (SRC-2) recruitment by the peroxisome proliferator-activated receptor gamma (PPAR gamma): non-selective agonists. [Related pubchem assays: 1297, 1032 ]; assay type: functional
[8] = biological target: Peroxisome proliferator-activated receptor gamma/Nuclear receptor corepressor 2 (Homo sapiens, UniProt P37231+Q9Y618); assay type: functional
Protein Tat = Protein Tat (Human immunodeficiency virus type 1 group M subtype B (isolate HXB2)(HIV-1), UniProt P04608); assay type: functional;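 note: tat binding to TAR RNA read out by fluorescence polarization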
Sequence of Protein Tat (P04608 whole entry): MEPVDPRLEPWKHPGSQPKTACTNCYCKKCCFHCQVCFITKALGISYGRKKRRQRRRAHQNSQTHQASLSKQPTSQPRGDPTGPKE

[9] = Luminescence Cell-Based Dose Confirmation HTS to Identify Activators of 5'UTR Stem-Loop Driven Alpha-Synuclein mRNA Translation in H4 Neuroglioblastoma Cells. [Related pubchem assays: 1829 (Project Summary), 1814 (Primary HTS)]; assay type: functional
[10] = Luminescence Cell-Based Dose Response HTS to Identify Activators of Luciferase Translation or Activity in H4 […] Cells. [Related pubchem assays: 1829 (Project Summary), 1814 (Primary HTS)]; assay type: functional
H4 = assay: Luminescence Cell-Based Dose Response HTS to Identify Activators of 5'UTR Stem-Loop Driven Prion Protein mRNA Translation in H4 Neuroglioblastoma Cells. [Related pubchem assays: 1829 (Project Summary), 1814 (Primary HTS)]; assay type: functional; conditions: Homo sapiens
[11] = cytotoxicity in HPDE-C7 cells, cell-based, fluorescence, HTS (AID 430); assay type: functional; conditions: Homo sapiens
[12] = inhibitors of intracellular T. cruzi replication, confirmation, NIH3T3 host cells, beta-gal luminescence (AID 2044); assay type: functional, cell-based;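 note: intracellular parasites grown in NIH/3T3 mouse fibroblasts as host cells; luminescent beta-galactosidase reporter signal from transgenic T. cruzi replicating inside host cells; inhibitors lower the luminescence signal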
[13] = cytotoxicity in KRAS-transformed pancreatic duct cells, primary screen, cell-based, fluorescence, HTS (AID 431); assay type: functional; conditions: Homo sapiens;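 note: cell line used: HPDE-C7K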
[14] = cytotoxicity toward NIH3T3 fibroblasts, dose response, counter-screen, cell-based, ATP luminescence, mouse fibroblasts (AID 2010); assay type: functional;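 note: cells exposed to compound for about 90 hours before reading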
[15] = biological target: Fructose-bisphosphate aldolase (Mycobacterium tuberculosis, UniProt P9WQA3); assay: Fluorescence-based biochemical high throughput dose response assay for inhibitors of the fructose-bisphosphate aldolase (FBA) of M. tuberculosis.; assay type: functional
Sequence of Fructose-bisphosphate aldolase (P9WQA3 whole entry): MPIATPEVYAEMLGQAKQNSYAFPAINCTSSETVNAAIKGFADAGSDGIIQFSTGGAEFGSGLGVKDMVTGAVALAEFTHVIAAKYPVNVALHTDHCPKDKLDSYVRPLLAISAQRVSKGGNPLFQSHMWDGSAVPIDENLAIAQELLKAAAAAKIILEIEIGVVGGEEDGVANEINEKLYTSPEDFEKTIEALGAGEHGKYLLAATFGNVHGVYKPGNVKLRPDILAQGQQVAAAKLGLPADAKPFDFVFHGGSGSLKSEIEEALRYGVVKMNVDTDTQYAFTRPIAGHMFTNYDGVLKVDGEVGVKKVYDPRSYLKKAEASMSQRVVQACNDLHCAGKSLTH

Estrogen receptor beta [16] = biological target: T1, Estrogen receptor beta (Homo sapiens, UniProt Q92731);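 note: recombinant ER-beta bound to coactivator SRC1 peptide in presence of estradiol agonist; inhibitors block coactivator peptide binding and lower the FRET signal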
T1 sequence (Q92731 whole entry): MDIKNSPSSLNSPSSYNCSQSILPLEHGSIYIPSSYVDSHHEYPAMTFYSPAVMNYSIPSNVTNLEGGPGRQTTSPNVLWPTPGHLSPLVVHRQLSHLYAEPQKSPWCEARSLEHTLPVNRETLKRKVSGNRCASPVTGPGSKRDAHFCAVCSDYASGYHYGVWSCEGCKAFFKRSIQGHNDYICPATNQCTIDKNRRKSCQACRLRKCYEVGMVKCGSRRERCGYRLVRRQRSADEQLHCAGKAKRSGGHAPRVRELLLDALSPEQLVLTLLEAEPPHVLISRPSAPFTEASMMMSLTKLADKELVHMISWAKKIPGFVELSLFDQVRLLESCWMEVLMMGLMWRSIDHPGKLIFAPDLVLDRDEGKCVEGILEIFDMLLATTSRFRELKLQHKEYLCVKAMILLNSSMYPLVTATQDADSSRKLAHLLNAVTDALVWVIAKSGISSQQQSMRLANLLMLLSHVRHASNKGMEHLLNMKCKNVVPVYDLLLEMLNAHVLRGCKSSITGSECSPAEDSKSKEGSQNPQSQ

Estrogen receptor beta [17] = biological target: T1, Estrogen receptor beta; assay: ERβ–SRC-3 coactivator interaction inhibitors, confirmation, orthogonal assay, biochemical, ELISA, streptavidin-HRP readout (AID 1060)
[18] = biological target: Lysosomal acid glucosylceramidase (Homo sapiens, UniProt P04062); assay: Dose response cell-based high throughput screening assay to identify enhancers of beta-glucosidase activity. [Related pubchem assays: 784 ]; assay type: functional
Sequence of Lysosomal acid glucosylceramidase (P04062 whole entry): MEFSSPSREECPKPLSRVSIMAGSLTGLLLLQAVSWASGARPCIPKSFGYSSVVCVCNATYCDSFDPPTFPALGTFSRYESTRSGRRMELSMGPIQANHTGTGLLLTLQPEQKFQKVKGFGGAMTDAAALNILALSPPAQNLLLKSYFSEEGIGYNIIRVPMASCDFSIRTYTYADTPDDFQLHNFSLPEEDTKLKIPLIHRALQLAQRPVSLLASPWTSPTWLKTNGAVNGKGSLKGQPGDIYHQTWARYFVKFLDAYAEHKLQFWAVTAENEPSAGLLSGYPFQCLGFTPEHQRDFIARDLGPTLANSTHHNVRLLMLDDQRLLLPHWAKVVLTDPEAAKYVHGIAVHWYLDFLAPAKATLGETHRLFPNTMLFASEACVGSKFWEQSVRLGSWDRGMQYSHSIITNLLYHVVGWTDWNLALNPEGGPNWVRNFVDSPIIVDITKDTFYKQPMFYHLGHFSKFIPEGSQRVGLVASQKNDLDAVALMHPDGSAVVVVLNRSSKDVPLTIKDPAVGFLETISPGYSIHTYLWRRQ

## C=C(C=O)CC1CC(O)[C@]2(C)OC3CC4OC5C[C@]6(C)O[C@]7(C)CCC8OC9C[C@]%10(C)OC%11C(C)=CC(=O)OC%11CC%10OC9C[C@@H](C)C8OC7CC6O[C@]5(C)CC5OC5C4OC3CC2O1 (some centres not stated)
BJ [1]
  EC50: 1.17 µM (inconclusive)
BJ [2]
  EC50: 2.93 µM (inconclusive)
BJ [3]
  EC50: 0.735 µM (inconclusive)
X-box-binding protein 1
  Absolute IC50 (XBP1): 4.71 µM

## O=C(O)CCc1ccc(-c2ccc(Br)cc2)o1
[4]
  IC50: > 39.8 µM (not active)
[5]
  EC50: > 79.4 µM (inactive)
[6]
  EC50: > 79.4 µM (not active)
[7]
  EC50: 65.4 µM (not active)
[8]
  IC50: 4.4 µM (active)
Protein Tat
  IC50: > 100 µM (active)

## Nc1c(C(=O)NCc2ccco2)c2nc3ccccc3nc2n1CCN1CCCCC1
[9]
  EC50: > 120 µM (not active)
[10]
  EC50: 26.9 µM (active)
H4
  EC50: > 120 µM (not active)
[11]
  EC50: 12.6 µM (active)
[12]
  EC50: 2.43 µM (active)
[13]
  EC50: 14.4 µM (active)
[14]
  EC50: 9.81 µM (active)
[15]
  IC50: 0.776 µM (active)

## Cc1ccccc1Nc1nnc(SCC(=O)NCc2ccco2)s1
Estrogen receptor beta [16]
  IC50: 10.3 µM (active)
Estrogen receptor beta [17]
  IC50: 3.24 µM (not active) and > 50 µM (not active)

## CCOC(=O)c1c(NC(=O)Cc2cccs2)sc(C(=O)NC2CCCCC2)c1C
X-box-binding protein 1
  Absolute IC50 (XBP1): 10 µM

## CC(C)OC(=O)CSc1nnc(-c2cccnc2)n1N
[18]
  EC50: > 10 µM (not active)
